Source: patent US20260183274A1, “PDK1 REGULATORY COMPOUND AND COMPOSITION CONTAINING THE SAME” (PROVIBIO CO., LTD., priority 2024, published 2026)
“Also recorded” adds a separate entry of the source. Read-outs that look alike come from different tables or passages of the source.

Experiments:
[1] = system: Human B Lymphocyte cell line, SU-DHL-8; assay: Relative cell viability CCK-8, SU-DHL-8; type: cell-based
Method in brief: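 Cells grown in RPMI-1640 with 10% FBS, treated with compound at several concentrations, then given CCK-8 for 4 h at 37° C. Viability expressed as percent of DMSO-treated cells.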

[2] = target: T1, PDK1 (phosphoinositide-dependent kinase 1) (Homo sapiens, UniProt O15530); assay: PDK1 phosphorylation (pPDK1) by flow cytometry in SU-DHL-8 cells; type: cell-based; settings: SU-DHL-8, 24 hours, vs control group, FIG. 3
T1 construct: endogenous in cells; host or cells: SU-DHL-8 (ATCC CRL-2961)
T1 sequence (O15530 1-556): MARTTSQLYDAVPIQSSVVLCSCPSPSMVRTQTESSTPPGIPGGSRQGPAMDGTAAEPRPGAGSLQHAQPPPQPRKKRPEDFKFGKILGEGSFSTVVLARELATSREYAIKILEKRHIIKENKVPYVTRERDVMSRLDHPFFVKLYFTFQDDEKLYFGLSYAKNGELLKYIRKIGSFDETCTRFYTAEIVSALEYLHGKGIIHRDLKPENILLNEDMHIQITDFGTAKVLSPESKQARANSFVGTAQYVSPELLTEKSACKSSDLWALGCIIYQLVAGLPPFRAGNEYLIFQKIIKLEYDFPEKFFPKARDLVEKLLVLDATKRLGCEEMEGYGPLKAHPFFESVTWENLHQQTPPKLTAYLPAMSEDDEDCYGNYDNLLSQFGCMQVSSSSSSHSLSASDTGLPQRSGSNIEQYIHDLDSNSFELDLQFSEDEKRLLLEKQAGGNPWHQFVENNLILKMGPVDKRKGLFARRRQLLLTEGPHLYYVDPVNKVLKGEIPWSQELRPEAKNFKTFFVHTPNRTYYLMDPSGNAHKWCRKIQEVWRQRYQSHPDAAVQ
Procedure: After stabilizing the cells, the compound of the present invention was added, and the cells were cultured for 24 hours.
After drug treatment, the cells were harvested, and the Fc receptor blocking process was performed. The cells were then fixed and permeabilized using the Intracellular Staining Kit (Cat. No. BD554715) from BD Biosciences. Subsequently, the intracellular pPDK1 was stained using the pPDK1-PE fluorescently labeled antibody (BD Biosciences).
Referring to the figure, the vertical axis represents the phosphorylation level of PDK1 (phospho-PDK1 expression level), and the horizontal axis denotes the concentration-dependent treatment conditions of each compound.

[3] = system: HCT-116 colon cancer cell lines; assay: Matrigel Invasion Assay, HCT-116; type: cell-based, human; settings: 24 hours treatment, FIG. 30
Procedure: To evaluate the metastasis inhibitory efficacy of the compounds of the present invention on HCT-116 colon cancer cell lines, an Invasion Assay using Matrigel was performed to assess the cells' invasion ability.
First, Matrigel was thawed on ice in RPMI-1640 medium without FBS, then diluted with DMEM at a ratio of 1:20.
The diluted Matrigel mixture was applied to the upper chamber at 100 μl per well, and 750 μl of RPMI-1640 without FBS was added to the lower chamber.
The plates were then incubated at 37° C. for 1 hour to allow the Matrigel to solidify.
After coating, the Matrigel mixture in the upper chamber was removed using a pipette, and the chamber was washed with RPMI without FBS.
Human-derived colorectal cancer cell line HCT-116, obtained from the Korean Cell Bank, was cultured in RPMI-1640 medium containing 10% FBS.
Following stabilization, the cells were harvested using Trypsin-EDTA treatment, centrifuged at 1,200 rpm for 3 minutes, the supernatant was removed, and the cells were resuspended in the same medium, the medium in the lower chamber was replaced with 750 μl of RPMI-1640 supplemented with 10% FBS, and the cells were seeded into the upper chamber at a density of 5×10^4 cells/well.
The cells were cultured for 24 hours after attachment, and then the compounds according to the present invention (G078, G085, G086, G088, G089, PBK-2024-010, PBK-2025-010, PBK-2025-013, PBK-2025-016) and the control substance DMSO were diluted and added to the upper chamber after removing the medium.
Additionally, the medium in the lower chamber was replaced with fresh RPMI-1640 containing FBS, and the culture was continued.
After an additional 24 hours, the medium was removed, and 1 ml of methanol was added for 10 minutes to fix the cells.
Subsequently, 1 ml of Hematoxylin was added and reacted for 5 minutes, followed by 1 ml of Eosin, which was reacted for 30 seconds. The sample was then washed with distilled water (DW).
After staining was complete, any remaining cells in the upper chamber were removed. Finally, the infiltrated cells were observed under a microscope, photographed, and the degree of infiltration was analyzed.

[4] = system: Human Bladder cancer cell, T24; assay: Relative cell viability CCK-8, T24; type: cell-based; settings: for Relative cell viability (%), T24: 48 hours
Procedure: Human-derived breast cancer cell line MCF-7, human-derived lung cancer cell line A549, human-derived colorectal cancer cell line HCT-116, human pancreatic cancer cell line AsPC-1, glioblastoma cell line A172, and melanoma cell line Malme-3M were obtained from the Korean Cell Bank. gastric cancer cell line SNU-719, and bladder cancer cell line T24 were cultured in RPMI-1640 medium containing 10% FBS.
(§1) Following stabilization, the cells were harvested using Trypsin-EDTA treatment, centrifuged at 1,200 rpm for 3 minutes, the supernatant was removed, and the cells were resuspended in the same medium. They were then seeded into a 96-well plate (Costar 96-well cell culture plate, Corning) at 100 μL per well, and the conditions were adjusted as indicated in Table 5.
(§2) The cells were cultured in a 5% CO2 incubator at 37° C. for 24 hours, and after stabilization of the cells, each plate was washed with 200 μL of PBS per well and treated with 50 μL of culture medium per well.
(§3) After that, 10 μL of CCK-8 was added to each well, and the plate was incubated again at 37° C. in a 5% CO2 incubator for 2 hours.
(§4) In other words, when the survival rate of untreated cells (DMSO) is set at 100%, the relative cell survival rate in each group treated with the drug at different concentrations is indicated.

[5] = system: Human Head and Neck cancer, Fadu; assay: Relative cell viability CCK-8, Fadu; type: cell-based; settings: Fadu cells, relative to untreated cells
Procedure: Human-derived head and neck cancer cell line Fadu and osteosarcoma cell line Saos-2 were cultured in MEM medium containing 10% FBS, 100 U/mL penicillin, and 100 μg/mL streptomycin.
as §1, §2, §3, §4

[6] = Homo sapiens, SU-DHL-8, 48 h, read-out: Relative cell viability (%), SU-DHL-8, 1 μM, 48 hours, untreated (DMSO) = 100%
[7] = Homo sapiens, SU-DHL-8, 48 h, read-out: Relative cell viability (%), SU-DHL-8, 10 μM, 48 hours, untreated (DMSO) = 100%
[8] = 30 μM, 48 hours, untreated (DMSO) = 100%
[9] = 50 μM, 48 hours, untreated (DMSO) = 100%

Structure (SMILES): Nc1ncccc1C(=O)NCCCCCCCCCCCCN1CCOCC1 [Compound 2, 2-Amino-N-(12-morpholin-4-yl-dodecyl)-nicotinamide]
- viability at 1 µM [1, 6]: 31%
- viability at 10 µM [1, 7]: 26%
- viability at 30 µM ([1]; Homo sapiens, SU-DHL-8, 48 h, read-out: Relative cell viability (%), SU-DHL-8, 30 μM, 48 hours, untreated (DMSO) = 100%): 25.3%
- viability at 50 µM ([1]; Homo sapiens, SU-DHL-8, 48 h, read-out: Relative cell viability (%), SU-DHL-8, 50 μM, 48 hours, untreated (DMSO) = 100%): 24.7%
- Inhibition of PDK1 phosphorylation (phospho-PDK1 expression level) ([2]; listed as GO48): stronger PDK1 inhibition; also recorded: high inhibitory effects even at low concentrations

Structure (SMILES): Nc1ncccc1C(=O)NCCCCCCCCCCCCN1CCNCC1 [Compound 5, 2-Amino-N-(12-(piperazin-1-yl)dodecyl)-nicotinamide]
- viability at 1 µM [1, 6]: 8.8%
- viability at 10 µM [1, 7]: 5.87%
- Relative cell viability (%), SU-DHL-8 ([1]; human, 48 h, 30 µM): 4.63%
- Relative cell viability (%), SU-DHL-8 ([1]; human, 48 h, 50 µM): 3.67%
- Number of infiltrated cells (invasion) [3]: reduction in the number of infiltrated cells
- Relative cell viability (%), T24 ([4]; 1 μM, listed as GO78, 1 µM): 28.34%
- Relative cell viability (%), T24 ([4]; 10 μM, listed as GO78, 10 µM): 30.42%
- Relative cell viability (%), T24 ([4]; 30 μM, listed as GO78, 30 µM): 29.73%
- Relative cell viability (%), T24 ([4]; 50 μM, listed as GO78, 50 µM): 29.32%
- Relative cell viability (%) ([5]; 10 μM, listed as GO78, 10 µM): 6.63%
- Relative cell viability (%) ([5]; 30 μM, listed as GO78, 30 µM): 4.93%
- Relative cell viability (%) ([5]; 50 μM, listed as GO78, 50 µM): 0.99%
- viability at 1 µM ([5]; Homo sapiens, FaDu, 1 μM): 4.18%

Structure (SMILES): CC1(C)CN(CCCCCCCCCCCCC(=O)Nc2nc(N)c3[nH]cnc3n2)CCO1 [Compound 11, 12-[4-(2,2-dimethylmorpholin-4-yl)]dodecyl-N-(6-aminopurine-2-yl) carboxamide]
- Relative cell viability (%), SU-DHL-8 ([1]; 1 μM, 48 hours, untreated (DMSO) = 100%): 7.63%
- Relative cell viability (%), SU-DHL-8 ([1]; 10 μM, 48 hours, untreated (DMSO) = 100%): 6.09%
- Relative cell viability (%), SU-DHL-8 [1, 8]: 4.82%
- Relative cell viability (%), SU-DHL-8 [1, 9]: 3.29%
- Number of infiltrated cells (invasion) [3]: reduction in the number of infiltrated cells
- Relative cell viability (%), T24 ([4]; 1 μM): 28.15%
- Relative cell viability (%), T24 ([4]; 10 μM): 31.17%
- Relative cell viability (%), T24 ([4]; 30 μM): 30.42%
- Relative cell viability (%), T24 ([4]; 50 μM): 29.34%
- Relative cell viability (%) ([5]; 1 μM): 2.08%
- Relative cell viability (%) ([5]; 10 μM): 9.68%
- Relative cell viability (%) ([5]; 30 μM): 8.51%
- Relative cell viability (%) ([5]; 50 μM): 4.78%
- Inhibition of PDK1 phosphorylation (phospho-PDK1 expression level) ([2]; listed as GO86): stronger PDK1 inhibition; also recorded: high inhibitory effects even at low concentrations

Structure (SMILES): Nc1ncccc1C(=O)NCCCCCCCCCCCCN1CCNCC1 [Compound 14, 2-Amino-N-(12-(piperazin-1-yl)dodecyl)nicotinamide]
- Relative cell viability (%), SU-DHL-8 ([1]; human, 48 h, 1 µM): 9.28%
- Relative cell viability (%), SU-DHL-8 ([1]; human, 48 h, 10 µM): 3.31%
- Relative cell viability (%), SU-DHL-8 ([1]; human, 48 h, 30 µM): 1.16%
- Relative cell viability (%), SU-DHL-8 ([1]; human, 48 h, 50 µM): 0.32%
- Relative cell viability (%), T24 ([4]; 1 μM, listed as GO88, 1 µM): 9.88%
- Relative cell viability (%), T24 ([4]; 10 μM, listed as GO88, 10 µM): 11.01%
- Relative cell viability (%), T24 ([4]; 30 μM, listed as GO88, 30 µM): 9.22%
- Relative cell viability (%), T24 ([4]; 50 μM, listed as GO88, 50 µM): 7.47%
- Relative cell viability (%) ([5]; 1 μM, listed as GO88, 1 µM): 7.05%
- Relative cell viability (%) ([5]; 10 μM, listed as GO88, 10 µM): 73.25%
- Relative cell viability (%) ([5]; 30 μM, listed as GO88, 30 µM): 57.64%
- Relative cell viability (%) ([5]; 50 μM, listed as GO88, 50 µM): 7.08%
- Inhibition of PDK1 phosphorylation (phospho-PDK1 expression level) ([2]; listed as GO88): stronger PDK1 inhibition; also recorded: high inhibitory effects even at low concentrations

Structure (SMILES): Nc1nc(NC(=O)CCCCCCCCCCCCN2CCN(CCO)CC2)nc2nc[nH]c12 [Compound 15, 12-[4-(2-hydroxyethyl)piperazin-1-yl]dodecyl-N-(6-aminopurine-2-yl) carboxamide]
- Number of infiltrated cells (invasion) [3]: reduction in the number of infiltrated cells
- viability at 1 µM ([4]; Homo sapiens, 48 h, 1 μM): 7.92%
- viability at 10 µM ([4]; Homo sapiens, 48 h, 10 μM): 9.29%
- viability at 30 µM ([4]; Homo sapiens, 48 h, 30 μM): 9.57%
- viability at 50 µM ([4]; Homo sapiens, 48 h, 50 μM): 8.75%
- viability at 1 µM ([5]; Homo sapiens, FaDu, 1 μM): 4.15%
- viability at 10 µM ([5]; Homo sapiens, FaDu, 10 μM): 29.3%
- viability at 30 µM ([5]; Homo sapiens, FaDu, 30 μM): 41.5%
- viability at 50 µM ([5]; Homo sapiens, FaDu, 50 μM): 9.44%

Structure (SMILES): Nc1ncccc1C(=O)NCCCCCCCCCCCCF [Compound 57, 2-Amino-N-(12-fluoro-dodecyl)-nicotinamide]
- Relative cell viability (%), SU-DHL-8 [1, 8]: 15.63%
- Relative cell viability (%), SU-DHL-8 [1, 9]: 11.94%
- viability at 1 µM ([1]; Homo sapiens, SU-DHL-8, 48 h, 1 μM, 48 hours, untreated (DMSO) = 100%, read-out: Relative cell viability (%), SU-DHL-8): 19%
- viability at 10 µM ([1]; Homo sapiens, SU-DHL-8, 48 h, 10 μM, 48 hours, untreated (DMSO) = 100%, read-out: Relative cell viability (%), SU-DHL-8): 18.8%
- Inhibition of PDK1 phosphorylation (phospho-PDK1 expression level) [2]: exhibited an inhibitory effect on PDK1 phosphorylation
